Values of other authors, collected in patent US20010046961A1, “Method for the treatment of solid tumors by albumin microparticles incorporating paclitaxel” (ACS DOBFAR S.p.A., priority 2000, published 2001).

System: head and neck cancer
Details: traditional treatment with Paclitaxel, for example head and neck cancer

CC(=O)O[C@H]1C(=O)[C@@]2(C)[C@H]([C@H](OC(=O)c3ccccc3)[C@]3(O)C[C@H](OC(=O)[C@H](O)[C@@H](NC(=O)c4ccccc4)c4ccccc4)C(C)=C1C3(C)C)[C@]1(OC(C)=O)CO[C@@H]1C[C@@H]2O [Paclitaxel]
treatment response percentage: 40%
